According to patent US5686454A, “Camphorcarbonyl” (Merck & Co., Inc., priority 1996, dated 1997):

Molecular target: T1, uterine OT receptors (Rattus norvegicus, UniProt P70536)
T1 construct: crude membrane preparation of uteri; from tissue; host or cells: uterus of DES-treated rats, crude membranes
T1 sequence (P70536 1-388): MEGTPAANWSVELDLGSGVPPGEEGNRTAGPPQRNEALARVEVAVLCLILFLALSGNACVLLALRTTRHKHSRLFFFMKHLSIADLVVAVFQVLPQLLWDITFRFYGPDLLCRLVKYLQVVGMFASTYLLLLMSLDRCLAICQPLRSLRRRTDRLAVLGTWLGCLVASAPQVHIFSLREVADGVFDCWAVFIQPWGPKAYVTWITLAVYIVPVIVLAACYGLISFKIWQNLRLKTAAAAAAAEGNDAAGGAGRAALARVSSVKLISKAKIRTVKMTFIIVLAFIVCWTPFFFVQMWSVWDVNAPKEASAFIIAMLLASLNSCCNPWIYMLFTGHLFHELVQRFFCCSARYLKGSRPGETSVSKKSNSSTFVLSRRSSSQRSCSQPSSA
Experiment: Radioligand binding: competition of [^3 H]oxytocin binding to rat uterine membranes
Settings: 1 nM [^3 H]OT, rat uterus membranes, 60 minutes, 22° C., pH 7.4; read-out: IC50
From the text: RADIOGLIGAND BINDING ASSAYS
The high affinity binding of [^3 H]

Row | SMILES | IC50
1 | Cc1ccccc1N1CCN(S(=O)(=O)CC23CCC(C=C2C(=O)NCCc2c[nH]cn2)C3(C)C)CC1 (stereo not drawn) [Example 58, 1-((7,7-Dimethyl-2-(4-imidazolyl)ethylaminocarbonyl-bicyclo(2.2.1)hept-2-en-1-yl)methanesulfonyl)-4-(2-methylphenyl)piperazine] | 120 nM
2 | CC(=O)NC1C(C(=O)N2CCN(c3ccccc3C)CC2)C2CCC1(C)C2(C)C (stereo not drawn) [Example 14, 1-(2-methylphenyl)-4-[(4,7,7-trimethyl-3-acetylaminobicyclo[2.2.1]hept-2-yl)carbonyl]-piperazine] | 55 nM
3 | COC(=O)CCN1CCCC(C(=O)NCC(C)C2(O)CC3CCC2(CS(=O)(=O)N2CCN(c4ccccc4C)CC2)C3(C)C)C1 (stereo not drawn) [Example 84] | 25 nM
4 | Cc1ccccc1N1CCN(C(=O)C2C3CCC(C)(C2NC(=O)C(NC(=O)OC(C)(C)C)C(C)O)C3(C)C)CC1 (stereo not drawn) [Example 19, 1-(2-methylphenyl)-4-[(4,7,7-trimethyl-3-(2-(t-butoxycarbonyl)amino-3-hydroxy)butyrylaminobicyclo[2.2.1]hept-2-yl)carbonyl]-piperazine] | 160 nM
5 | Cc1ccccc1N1CCN(C(=O)C2(C)C(=O)C3(C)CCC2C3(C)C)CC1 (stereo not drawn) [Example 3, 1-(2-methylphenyl)-4-[(2,4,7,7-tetramethyl-3-oxobicyclo[2.2.1]hept-2-yl)carbonyl]-piperazine] | 150 nM
6 | Cc1ccccc1N1CCN(C(=O)C2C3CCC(C)(C2NC(=O)C(C)(C)O)C3(C)C)CC1 (stereo not drawn) [Example 17] | 16 nM
7 | Cc1ccccc1N1CCN(S(=O)(=O)C[C@]23CC[C@H](C[C@]2(O)C(C)CNC(=O)Cc2c[nH]cn2)C3(C)C)CC1 (stereo partly drawn) [Example 43, 1-((7,7-Dimethyl-2-exo-hydroxy-2-endo-2-(1-(4(5)-imidazolylacetyl)amino)propyl-bicyclo(2.2.1)heptan-1-yl)methanesulfonyl)-4-(2-methylphenyl)piperazine] | 8 nM

Further lines, results first:

Row | IC50 | SMILES
8 | 12 nM | Cc1ccccc1N1CCN(S(=O)(=O)C[C@]23CC[C@H](C[C@@H]2NC(=O)C(C)c2c[nH]cn2)C3(C)C)CC1 (stereo partly drawn) [Example 80, 1-((7,7-Dimethyl-2-endo-(2-(4-imidazolyl)propanoyl)-amino-bicyclo(2.2.1)heptan-1-yl)methanesulfonyl)-4-(2-methylphenyl)piperazine]
9 | 38 nM | CCOC(=O)CN1CCCC(C(=O)NCC(C)C2(O)CC3CCC2(CS(=O)(=O)N2CCN(c4ccccc4C)CC2)C3(C)C)C1 (stereo not drawn) [Example 86, 1-((7,7-Dimethyl-2-exo-hydroxy-2-endo-2-(1-(3-(1-ethoxycarbonylmethyl)piperidinylcar-bonyl)amino)propyl-bicyclo(2.2.1)heptan-1-yl)methanesulfonyl)-4-(2-methylphenyl)piperazine]
10 | 110 nM | Cc1ccccc1N1CCN(S(=O)(=O)CC23CCC(CC2N(C)C(=O)[C@H](CCS(C)(=O)=O)N(C)C)C3(C)C)CC1 (stereo partly drawn) [Example 78, 1-((7,7-Dimethyl-2-endo-methyl(2S-dimethylamino-4-(methylsulfonyl)butanoyl)amino-bicyclo(2.2.1)heptan-1-yl)methanesulfonyl)-4-(2-methylphenyl)-piperazine]
11 | 30 nM | Cc1ccccc1N1CCN(S(=O)(=O)CC23CCC(CC2(O)C(C)CNC(=O)C2CCNCC2)C3(C)C)CC1 (stereo not drawn) [Example 90]

Same assay, conditions: read-out: % inhibition at 100 nM

Row | inhibition at 0.1 µM | SMILES
12 | 37% | COC(=O)C1CC(=O)N(CC(C)C2(O)CC3CCC2(CS(=O)(=O)N2CCN(c4ccccc4C)CC2)C3(C)C)C1 (stereo not drawn) [Example 62, 1-((7,7-dimethyl-2-exo-hydroxy-2-endo-2-(1-(3-methoxycarbonyl)-2-pyrrolidinon-1-yl)propylbicyclo-(2.2.1)heptan-1-yl)methanesulfonyl)-4-(2-methylphenyl)piperazine]
13 | 36% | Cc1ccccc1N1CCN(S(=O)(=O)C[C@]23CC[C@H](CC2=CCN)C3(C)C)CC1 [Example 52, 1-((7,7-dimethyl-2-(2-amino)ethylidine-bicyclo-(2.2.1)heptan-1-yl)methanesulfonyl)-4-(2-methyl-phenyl)piperazine]

Same assay, conditions: read-out: % inhibition at 1000 nM

Row | SMILES | inhibition at 1 µM
14 | Cc1ccccc1N1CCN(C(=O)C2(CC(=O)O)C(=O)C3(C)CCC2C3(C)C)CC1 (stereo not drawn) [Example 4, 1-(2-methylphenyl)-4-[(4,7,7-trimethyl-3-oxo-2-carboxymethyl-bicyclo[2.2.1]hept-2-yl)carbonyl]-piperazine] | 53%
15 | Cc1ccccc1N1CCN(S(=O)(=O)C[C@]23CC[C@H](CC2=CCN=[N+]=[N-])C3(C)C)CC1 [Example 51, 1-((7,7-dimethyl-2-(2-azido)ethylidine-bicyclo-(2.2.1)heptan-1-yl)methanesulfonyl)-4-(2-methyl-phenyl)piperazine] | 64%

More lines, now with the values ahead:

Row | inhibition at 1 µM | SMILES
16 | 75% | Cc1ccccc1N1CCN(C(=O)C2C3CCC(C)(C2NC(=O)C(N)CCS(C)(=O)=O)C3(C)C)CC1 (stereo not drawn) [Example 10, 1-(2-methylphenyl)-4-[(4,7,7-trimethyl-3-exo-(4-methylsulfonyl-2-amino)butanoylaminobicyclo[2.2.1]hept-2-endo-yl)carbonyl]-piperazine]
17 | 78% | CCOC(=O)C(CC=C1CC2CCC1(CS(=O)(=O)N1CCN(c3ccccc3C)CC1)C2(C)C)(NC(C)=O)C(=O)OCC (stereo not drawn) [Example 64, 1-((7,7-Dimethyl-2-(3-acetamido-3,3'-di(ethoxycarbonyl))propylidine-bicyclo(2.2.1)heptan-1-yl)methanesulfonyl)-4-(2-methylphenyl)piperazine]
18 | 38% | COC(=O)C1=C[C@H]2CC[C@]1(CS(=O)(=O)N1CCN(c3ccccc3C)CC1)C2(C)C [Example 56, 1-((7,7-Dimethyl-2-methoxycarbonyl-bicyclo(2.2.1)hept-2-en-1-yl)methanesulfonyl)-4-(2-methylphenyl)-piperazine]
